Like-named read-outs stand apart in the source and are kept apart here.
Assays:
panel of 451 kinases = assay: KinomeScan panel selectivity; type: binding; conditions: 1 μM
Excerpt: The kinase selectivity of Compound 18 was further evaluated by KinomeScan.

BTK = BTK (Homo sapiens (Human), UniProt Q06187); assay: KinomeScan; type: binding; conditions: 1 uM
CDK3 = CDK3 (Homo sapiens (Human), UniProt Q00526); assay: KinomeScan; type: binding; conditions: 1 uM
EGFR (E746-A750del) = EGFR (E746-A750del) (Homo sapiens (Human), UniProt P00533, DEL746-750); assay: KinomeScan; type: binding; conditions: 1 uM
[1] = target: EGFR (L747-T751del, Sins) (Homo sapiens (Human), UniProt P00533, DEL747-751/INS746S); assay: KinomeScan; type: binding; conditions: 1 uM
EPHA5 = EPHA5 (Homo sapiens (Human), UniProt P54756); assay: KinomeScan; type: binding; conditions: 1 uM
[2] = target: JAK2 (JH1domain-catalytic) (Homo sapiens (Human), UniProt O60674); assay: KinomeScan; type: binding; conditions: 1 uM
JNK3 = JNK3 (Homo sapiens (Human), UniProt P53779); assay: KinomeScan; type: binding; conditions: 1 uM
MET = MET (Homo sapiens (Human), UniProt P08581); assay: KinomeScan; type: binding; conditions: 1 uM
p38-alpha = p38-alpha (Homo sapiens (Human), UniProt Q16539); assay: KinomeScan; type: binding; conditions: 1 uM
QSK = QSK (Homo sapiens (Human), UniProt Q9Y2K2); assay: KinomeScan; type: binding; conditions: 1 uM
SYK = SYK (Homo sapiens (Human), UniProt P43405); assay: KinomeScan; type: binding; conditions: 1 uM
[3] = target: TYK2 (JH2domain-pseudokinase) (Homo sapiens (Human), UniProt P29597); assay: KinomeScan; type: binding; conditions: 1 uM
ULK1 = ULK1 (Homo sapiens (Human), UniProt O75385); assay: KinomeScan; type: binding; conditions: 1 uM
EPH-B1 = EPH-B1 (Homo sapiens (Human), UniProt P54762); assay: Dundee profiling
PKBb = PKBb (Homo sapiens (Human), UniProt P31751); assay: Dundee profiling
MELK = MELK (Homo sapiens (Human), UniProt Q14680); assay: Dundee profiling
Chain of MELK (Q14680 whole entry, species assumed): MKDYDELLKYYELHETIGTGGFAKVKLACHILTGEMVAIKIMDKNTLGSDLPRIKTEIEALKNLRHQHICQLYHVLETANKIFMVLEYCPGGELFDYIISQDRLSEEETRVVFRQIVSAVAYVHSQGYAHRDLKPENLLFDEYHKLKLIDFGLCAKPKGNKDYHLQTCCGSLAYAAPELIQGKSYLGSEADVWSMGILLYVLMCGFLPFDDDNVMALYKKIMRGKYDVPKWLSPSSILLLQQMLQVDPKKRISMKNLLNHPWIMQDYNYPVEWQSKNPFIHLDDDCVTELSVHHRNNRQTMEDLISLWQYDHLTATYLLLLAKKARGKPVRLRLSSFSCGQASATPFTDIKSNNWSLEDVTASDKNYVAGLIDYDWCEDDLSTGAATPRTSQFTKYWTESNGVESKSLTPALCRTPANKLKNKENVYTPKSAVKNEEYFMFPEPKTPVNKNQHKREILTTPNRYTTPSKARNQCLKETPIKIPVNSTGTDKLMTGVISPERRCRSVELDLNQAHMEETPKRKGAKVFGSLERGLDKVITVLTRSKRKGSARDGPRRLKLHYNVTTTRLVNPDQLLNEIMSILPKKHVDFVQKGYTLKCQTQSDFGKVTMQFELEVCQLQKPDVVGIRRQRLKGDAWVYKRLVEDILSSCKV

TAO1 = TAO1 (Homo sapiens (Human), UniProt Q7L7X3); assay: Dundee profiling
ULK2 = ULK2 (Homo sapiens (Human), UniProt Q8IYT8); assay: Dundee profiling
Chain of ULK2 (Q8IYT8 whole entry, looked up, species assumed): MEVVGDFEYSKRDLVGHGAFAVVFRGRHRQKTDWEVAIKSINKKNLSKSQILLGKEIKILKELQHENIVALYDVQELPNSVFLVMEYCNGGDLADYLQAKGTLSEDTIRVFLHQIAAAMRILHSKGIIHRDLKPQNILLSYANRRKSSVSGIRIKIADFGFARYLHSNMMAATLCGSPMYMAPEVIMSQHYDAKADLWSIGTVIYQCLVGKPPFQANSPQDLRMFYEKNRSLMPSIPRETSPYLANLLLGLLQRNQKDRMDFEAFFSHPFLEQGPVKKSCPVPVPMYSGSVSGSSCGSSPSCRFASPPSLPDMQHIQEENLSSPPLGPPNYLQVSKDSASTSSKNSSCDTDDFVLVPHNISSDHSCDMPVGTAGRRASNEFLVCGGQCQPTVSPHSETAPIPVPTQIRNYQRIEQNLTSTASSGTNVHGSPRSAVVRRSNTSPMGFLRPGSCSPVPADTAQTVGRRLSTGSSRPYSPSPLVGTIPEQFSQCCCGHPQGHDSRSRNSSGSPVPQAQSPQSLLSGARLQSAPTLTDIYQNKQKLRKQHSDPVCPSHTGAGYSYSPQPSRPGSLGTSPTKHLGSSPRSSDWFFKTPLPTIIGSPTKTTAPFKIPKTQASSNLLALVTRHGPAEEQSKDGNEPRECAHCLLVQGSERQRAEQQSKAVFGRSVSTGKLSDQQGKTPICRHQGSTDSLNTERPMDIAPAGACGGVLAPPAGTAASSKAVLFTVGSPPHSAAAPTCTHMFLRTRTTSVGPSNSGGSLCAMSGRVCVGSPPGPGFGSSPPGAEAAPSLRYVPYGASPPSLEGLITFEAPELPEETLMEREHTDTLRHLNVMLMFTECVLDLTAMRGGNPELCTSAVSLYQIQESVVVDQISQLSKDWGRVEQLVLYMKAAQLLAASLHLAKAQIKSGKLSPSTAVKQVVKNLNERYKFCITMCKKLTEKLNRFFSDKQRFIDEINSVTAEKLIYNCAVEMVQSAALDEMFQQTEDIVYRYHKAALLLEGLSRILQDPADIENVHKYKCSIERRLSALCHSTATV

CHK1 = CHK1 (Homo sapiens (Human), UniProt O14757); assay: Dundee profiling
MSK1 = MSK1 (Homo sapiens (Human), UniProt O75582); assay: Dundee profiling
Chain of MSK1 (O75582 whole entry, species assumed): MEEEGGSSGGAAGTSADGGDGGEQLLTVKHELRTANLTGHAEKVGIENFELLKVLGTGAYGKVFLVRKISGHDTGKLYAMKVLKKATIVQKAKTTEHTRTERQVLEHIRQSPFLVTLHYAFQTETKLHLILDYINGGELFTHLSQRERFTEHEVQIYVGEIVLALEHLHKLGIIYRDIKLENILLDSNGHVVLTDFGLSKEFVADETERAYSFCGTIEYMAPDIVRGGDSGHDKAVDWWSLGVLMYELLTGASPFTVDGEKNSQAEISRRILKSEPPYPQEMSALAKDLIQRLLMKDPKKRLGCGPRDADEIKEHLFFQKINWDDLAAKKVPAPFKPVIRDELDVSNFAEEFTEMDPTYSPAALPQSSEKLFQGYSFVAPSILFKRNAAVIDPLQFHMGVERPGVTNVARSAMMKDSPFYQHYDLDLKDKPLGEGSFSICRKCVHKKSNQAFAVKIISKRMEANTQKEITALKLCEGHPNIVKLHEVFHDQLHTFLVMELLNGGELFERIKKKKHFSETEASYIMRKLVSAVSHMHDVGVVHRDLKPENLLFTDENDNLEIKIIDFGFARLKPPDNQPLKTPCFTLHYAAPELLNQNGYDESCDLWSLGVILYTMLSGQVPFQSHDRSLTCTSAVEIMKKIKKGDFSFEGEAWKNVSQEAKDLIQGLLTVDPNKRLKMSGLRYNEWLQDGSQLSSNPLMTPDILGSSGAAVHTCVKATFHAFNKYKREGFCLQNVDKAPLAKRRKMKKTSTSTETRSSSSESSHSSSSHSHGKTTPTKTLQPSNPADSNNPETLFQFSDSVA

CDK9-Cyclin T1 = CDK9-Cyclin T1 (Homo sapiens (Human), UniProt P50750); assay: Dundee profiling
MST4 = MST4 (Homo sapiens (Human), UniProt Q9P289); assay: Dundee profiling
Chain of MST4 (Q9P289 whole entry, species assumed): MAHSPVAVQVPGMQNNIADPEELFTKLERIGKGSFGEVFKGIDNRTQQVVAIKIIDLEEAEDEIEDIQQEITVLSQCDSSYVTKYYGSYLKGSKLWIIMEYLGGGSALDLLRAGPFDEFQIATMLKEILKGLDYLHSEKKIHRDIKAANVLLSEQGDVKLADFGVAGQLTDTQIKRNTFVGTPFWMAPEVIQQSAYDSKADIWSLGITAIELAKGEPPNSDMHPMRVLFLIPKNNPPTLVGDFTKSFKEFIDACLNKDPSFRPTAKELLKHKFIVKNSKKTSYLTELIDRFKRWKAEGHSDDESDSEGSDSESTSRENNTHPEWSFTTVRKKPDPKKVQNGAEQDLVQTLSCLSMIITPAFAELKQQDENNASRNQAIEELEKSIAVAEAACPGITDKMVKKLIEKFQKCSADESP

RIPK2 = RIPK2 (Homo sapiens (Human), UniProt O43353); assay: Dundee profiling
IKKb = IKKb (Homo sapiens (Human), UniProt O14920); assay: Dundee profiling
Chain of IKKb (O14920 whole entry, species assumed): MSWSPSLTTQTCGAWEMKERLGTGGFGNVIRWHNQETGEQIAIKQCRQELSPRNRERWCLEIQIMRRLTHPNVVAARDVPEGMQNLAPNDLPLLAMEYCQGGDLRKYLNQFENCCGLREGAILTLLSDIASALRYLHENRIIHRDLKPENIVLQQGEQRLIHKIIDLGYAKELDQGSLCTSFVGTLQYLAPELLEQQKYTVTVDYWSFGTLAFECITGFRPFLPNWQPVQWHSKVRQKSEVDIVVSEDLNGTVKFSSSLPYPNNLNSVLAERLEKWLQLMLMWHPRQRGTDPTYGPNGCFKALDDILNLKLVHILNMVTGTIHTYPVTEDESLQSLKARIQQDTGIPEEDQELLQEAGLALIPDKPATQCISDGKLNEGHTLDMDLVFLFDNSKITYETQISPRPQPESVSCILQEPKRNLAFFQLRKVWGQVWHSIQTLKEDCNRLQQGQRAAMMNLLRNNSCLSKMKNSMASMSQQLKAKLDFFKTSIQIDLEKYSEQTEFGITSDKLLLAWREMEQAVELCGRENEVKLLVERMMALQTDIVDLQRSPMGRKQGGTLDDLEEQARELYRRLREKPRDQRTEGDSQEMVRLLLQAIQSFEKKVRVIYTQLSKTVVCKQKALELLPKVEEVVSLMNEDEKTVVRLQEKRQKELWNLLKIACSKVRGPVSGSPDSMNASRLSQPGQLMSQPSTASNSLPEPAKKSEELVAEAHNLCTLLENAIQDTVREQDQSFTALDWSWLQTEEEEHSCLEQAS

MAPKAP-K3 = MAPKAP-K3 (Homo sapiens (Human), UniProt Q16644); assay: Dundee profiling
RSK1 = RSK1 (Homo sapiens (Human), UniProt Q15418); assay: Dundee profiling
TAK1 = TAK1 (Homo sapiens (Human), UniProt O43318); assay: Dundee profiling
HIPK1 = HIPK1 (Homo sapiens (Human), UniProt Q86Z02); assay: Dundee profiling
Chain of HIPK1 (Q86Z02 whole entry, looked up, species assumed): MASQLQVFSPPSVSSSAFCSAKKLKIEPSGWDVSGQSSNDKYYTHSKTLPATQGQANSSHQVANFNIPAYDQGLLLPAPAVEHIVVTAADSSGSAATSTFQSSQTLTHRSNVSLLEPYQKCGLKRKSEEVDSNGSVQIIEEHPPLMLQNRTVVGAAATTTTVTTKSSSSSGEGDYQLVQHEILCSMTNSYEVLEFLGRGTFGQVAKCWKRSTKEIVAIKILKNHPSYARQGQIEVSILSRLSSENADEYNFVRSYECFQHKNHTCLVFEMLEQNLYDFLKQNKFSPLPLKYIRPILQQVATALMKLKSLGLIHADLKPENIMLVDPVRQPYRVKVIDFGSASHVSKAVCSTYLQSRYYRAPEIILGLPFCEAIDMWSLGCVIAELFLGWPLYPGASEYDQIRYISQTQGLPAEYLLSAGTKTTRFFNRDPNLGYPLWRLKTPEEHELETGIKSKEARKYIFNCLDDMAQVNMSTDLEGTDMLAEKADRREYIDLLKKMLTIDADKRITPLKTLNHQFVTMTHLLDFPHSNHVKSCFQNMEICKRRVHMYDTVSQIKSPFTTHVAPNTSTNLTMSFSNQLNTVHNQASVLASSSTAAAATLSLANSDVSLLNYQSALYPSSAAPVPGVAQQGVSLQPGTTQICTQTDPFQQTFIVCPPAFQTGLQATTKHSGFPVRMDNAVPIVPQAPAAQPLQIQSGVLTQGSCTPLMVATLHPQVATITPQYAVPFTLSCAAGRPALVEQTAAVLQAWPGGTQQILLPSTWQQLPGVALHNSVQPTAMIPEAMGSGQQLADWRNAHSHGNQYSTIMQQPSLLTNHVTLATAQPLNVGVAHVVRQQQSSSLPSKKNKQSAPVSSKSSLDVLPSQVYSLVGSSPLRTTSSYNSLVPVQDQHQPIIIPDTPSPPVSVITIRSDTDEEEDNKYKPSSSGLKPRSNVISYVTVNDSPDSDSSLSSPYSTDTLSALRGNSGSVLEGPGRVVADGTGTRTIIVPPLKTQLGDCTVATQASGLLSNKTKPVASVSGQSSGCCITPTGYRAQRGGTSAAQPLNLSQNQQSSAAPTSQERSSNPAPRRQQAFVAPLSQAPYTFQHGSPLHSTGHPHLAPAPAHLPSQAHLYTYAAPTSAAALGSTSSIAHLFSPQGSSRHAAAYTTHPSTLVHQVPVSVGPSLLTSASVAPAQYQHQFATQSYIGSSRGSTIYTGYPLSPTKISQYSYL

MEKK1 = MEKK1 (Homo sapiens (Human), UniProt Q13233); assay: Dundee profiling
CK2 = assay: Dundee profiling
MST2 = MST2 (Homo sapiens (Human), UniProt Q13188); assay: Dundee profiling
NUAK1 = NUAK1 (Homo sapiens (Human), UniProt O60285); assay: Dundee profiling
DAPK1 = DAPK1 (Homo sapiens (Human), UniProt P53355); assay: Dundee profiling
SmMLCK = SmMLCK (Homo sapiens (Human), UniProt Q15746); assay: Dundee profiling
[4] = read-out: percent remaining enzymatic activity, I1, 1 μM
[5] = read-out: percent remaining enzymatic activity, I10
[6] = read-out: percent remaining enzymatic activity

CNc1nc(Nc2ccc(C(=O)N3CCOCC3)cc2OC)nc2[nH]cc(Cl)c12 [Compound 18, (4-((5-chloro-4-(methylamino)-7H-pyrrolo[2,3-d]pyrimidin-2-yl)amino)-3-methoxyphenyl)(morpholino)methanone]
kinase selectivity, interactions detected (panel of 451 kinases): no interactions detected with kinases other than LRRK2[G2019S] with the exception of TTK and RPS6KA4 | KinomeScan value (BTK): 100 | KinomeScan value (CDK3): 96 | KinomeScan value (EGFR (E746-A750del)): 100 | KinomeScan value [1]: 84 | KinomeScan value (EPHA5): 98 | KinomeScan value [2]: 100 | KinomeScan value (JNK3): 67 | KinomeScan value (MET): 97 | KinomeScan value (p38-alpha): 96 | KinomeScan value (QSK): 86 | KinomeScan value (SYK): 80 | KinomeScan value [3]: 100 | KinomeScan value (ULK1): 100 | remaining activity at 1 µM (EPH-B1; [4]): 119% | remaining activity at 1 µM (EPH-B1; [5]): 126% | remaining activity at 1 µM (PKBb; [4]): 118% | remaining activity at 1 µM (PKBb; [5]): 103% | remaining activity at 1 µM (MELK; [4]): 118% | remaining activity at 1 µM (MELK; [5]): 79% | remaining activity at 1 µM (TAO1; [4]): 113% | remaining activity at 1 µM (TAO1; [5]): 100% | remaining activity at 1 µM (ULK2; [4]): 110% | remaining activity at 1 µM (ULK2; [5]): 95% | percent remaining enzymatic activity (CHK1; I10): 93% | remaining activity at 1 µM (CHK1; [6]): 110% | remaining activity at 1 µM (MSK1; [4]): 109% | remaining activity at 1 µM (MSK1; [5]): 99% | remaining activity at 1 µM (CDK9-Cyclin T1; [4]): 105% | remaining activity at 1 µM (CDK9-Cyclin T1; [5]): 91% | remaining activity at 1 µM (MST4; [4]): 103% | remaining activity at 1 µM (MST4; [5]): 97% | remaining activity at 1 µM (RIPK2; [4]): 102% | remaining activity at 1 µM (RIPK2; [5]): 83% | remaining activity at 1 µM (IKKb; [4]): 100% | remaining activity at 1 µM (IKKb; [5]): 95% | remaining activity at 1 µM (MAPKAP-K3; [4]): 97% | remaining activity at 1 µM (MAPKAP-K3; [5]): 84% | remaining activity at 1 µM (RSK1; [4]): 96% | remaining activity at 1 µM (RSK1; [5]): 60% | remaining activity at 1 µM (TAK1; [4]): 96% | remaining activity at 1 µM (TAK1; [5]): 42% | remaining activity at 1 µM (HIPK1; [4]): 95% | remaining activity at 1 µM (HIPK1; [5]): 44% | remaining activity at 1 µM (MEKK1; [4]): 94% | remaining activity at 1 µM (MEKK1; [5]): 85% | percent remaining enzymatic activity (CK2; I1, 1 μM): 94% | percent remaining enzymatic activity (CK2; I10): 70% | remaining activity at 1 µM (MST2; [4]): 90% | remaining activity at 1 µM (MST2; [5]): 82% | percent remaining enzymatic activity (NUAK1; I10): 17% | remaining activity at 1 µM (NUAK1; [6]): 75% | remaining activity at 1 µM (DAPK1; [4]): 21% | remaining activity at 1 µM (DAPK1; [5]): 5% | IC50 (SmMLCK): 0.0813 µM | inhibition at 1 µM (SmMLCK; read-out: inhibition of kinase activity of the DMSO control): > 90% | remaining activity at 1 µM (SmMLCK; [4]): 9% | remaining activity at 1 µM (SmMLCK; [5]): 1%

Source: US10913744B2, “LRRK2 inhibitors and methods of making and using the same” (Dana-Farber Cancer Institute, Inc., priority 2015, dated 2021)
